Measurements published in patent publication US9868730B2, “Kappa opioid receptor selective compounds, compositions, and uses thereof” (The Trustees of Columbia University in the City of New York, priority 2013, dated 2018).
Entries after “also recorded” stand apart in the source; their conditions may differ.

Key:
[1] = biological target: T1, DOP receptor (Homo sapiens, UniProt P41143); test: BRET-based G protein activation assay; type: cell-based; design: expressed in transfected cells; settings: for EC50: read-out: potency of G protein activation at DOP
Method: (§1) BRET was performed as described (Guo et al., 2008). Briefly, two days after transfection, cells were harvested, washed, and re-suspended in a phosphate-buffered saline (PBS) solution. Approximately 200,000 cells/well were distributed in 96-well plates, and 5 μM coelenterazine H (luciferase substrate) was added to each well. Five minutes after the addition of coelenterazine H, ligands were added to each well, and after 2 minutes for G protein activation or 5 minutes for arrestin recruitment, the BRET signal was determined by quantifying and calculating the ratio of the light emitted by mVenus, the energy acceptor (510-540 nm), over that emitted by RLuc8, the energy donor (485 nm). The drug-induced BRET signal was normalized, taking the Emax of the ethylketocyclazocine (EKC)-induced response as 100%. To measure cAMP accumulation, a BRET-based cAMP in a previously described YFP-Epac-RLuc (CAMYEL) assay was used (Jiang et al., 2007). GαoB B, β1, and γ2 were co-expressed to enhance the signal-to-noise ratio, and the cells were treated for 5 minutes with 100 μM forskolin prior to stimulation (Jiang et al., 2007). The data were normalized and represented as the percentage of forskolin-stimulated cAMP accumulation with 0 defined as the maximal inhibition elicited by EKC.

[2] = biological target: T2, MOP receptor (Homo sapiens, UniProt P35372); test: BRET-based G protein activation assay; type: cell-based; design: expressed in transfected cells
Method: as §1

[3] = biological target: T3, KOP receptor (Homo sapiens, UniProt P41145); test: BRET-based G protein (GαoB) activation assay in HEK293T cells; type: cell-based; design: host or cells: HEK293T; settings: for EC50: hKOP co-expressed with GαoB-RLuc8, β1, mVenus-γ2, read-out: potency (EC50) of GαoB activation at hKOP; for agonistic activity at hKOP (G protein activation), in words: relative to EKC
Source text: (§2) The cDNAs for human KOP (hKOP) receptor and the G protein GαoB were obtained from the Missouri S&T cDNA Resource Center. For arrestin recruitment experiments, full-length Renilla luciferase 8 (RLuc8, provided by S. Gambhir) was fused in-frame to the C terminus of the hKOP receptor in the pcDNA3.1 vector. The following human G protein constructs were provided by C. Gales (Gales et al., 2006; Sauliere et al., 2012): GαoB with RLuc8 inserted at position 91 (GαoB-RLuc8); untagged Gβ1 (β1); untagged Gγ2 (γ2). The human γ2 subunit was fused to full-length mVenus at its N terminus (mVenus-γ2), and the fusion construct human arrestin3-mVenus was used as previously described (Klewe et al., 2008). All constructs were confirmed by sequencing analysis. A total of 20 μg of plasmid cDNA (e.g. 0.2 μg of hKOR-RLuc8, 15 μg of arrestin3-mVenus, and 4.8 μg of pcDNA3.1) was transfected into HEK-293T cells using polyethylenimine (Polysciences Inc., Warrington, Pa.) in a 1:3 ratio in 10-cm dishes. Cells were maintained in culture with DMEM supplemented with 10% FBS. The transfected ratio among receptor, Gα, β1, and γ2, or arrestin was optimized by testing various ratios of plasmids encoding the different sensors. Experiments were performed 48 hours after transfection.
as §1
To assess whether any of these molecules had agonistic activity, a BRET-based G protein activation assay where the hKOP receptor was co-expressed in HEK293T cells with GαoB-RLuc8, β1, and mVenus-γ2 was used. The drug-induced BRET signal is interpreted as a dissociation of and/or conformational change within the Gαβγ complex, and thus, as the activation of the co-expressed G protein.

[4] = biological target: T3, KOP receptor; test: Competitive inhibition of 3H-diprenorphine binding, membranes of transfected HEK293T cells; design: host or cells: HEK293T; settings: for inhibition of 3H-diprenorphine binding: 100 μM compound, room temperature, 1 hour; for inhibition of 3H-diprenorphine binding / Ki: 0.3 nM 3H-diprenorphine; for Ki: means ± S.E.M. (n = 3), read-out: Ki KOP
Method: (§3) Two days after transfection with human KOP receptor and GαoB, HEK293T cells were lysed and membranes were prepared in HEPES buffer (NaCl 140 mM, KCl 5.4 mM, HEPES 25 mM, EDTA 1 mM, MgCl2 2 mM, BSA 0.006%, pH 7.4) using a Polytron homogenizer. Membranes were incubated with ^3H-diprenorphine (0.3 nM) (PerkinElmer, Waltham, Mass.) at room temperature for 1 hour in a final volume of 1 ml, in the absence or presence of various concentrations of each small-molecule selected from the virtual screening. Membranes were then harvested using a Brandel cell harvester through a Whatman FPD-24 934AH glass-fiber filter and washed three times with ice-cold wash Buffer (Tris-HCl 10 mM, NaCl 120 mM, pH 7.4). Non-specific binding was determined using 400 nM of NorBNI.
The primary experimental testing of MCKK-1-22 consisted of performing a competitive inhibition binding assay at the hKOP receptor. Membranes of HEK293T cells transfected with the hKOP receptor and GαoB were prepared and incubated with ^3H-diprenorphine (0.3 nM) in the absence or presence of 10 or 100 μM of each small-molecule from the virtual screening.
(§4) To assess the degree of selectivity of MCKK-4, MCKK-5, MCKK-13, MCKK-17R or MCKK-17S for the hKOP over the DOP and MOP receptors, competitive inhibition of ^3H-diprenorphine (0.3 nM) binding in the absence or presence of various concentrations of each molecule were performed, and their Ki values for each receptor were determined (Table 2 below).

[5] = biological target: T3, KOP receptor; test: BRET-based arrestin3 recruitment assay; type: cell-based; design: host or cells: HEK293T; settings: hKOP-RLuc8 with arrestin3-mVenus; read-out: potency of arrestin3 recruitment at hKOP
Source text: as §2
BRET was performed as described (Guo et al., 2008). Briefly, two days after transfection, cells were harvested, washed, and re-suspended in a phosphate-buffered saline (PBS) solution. Approximately 200,000 cells/well were distributed in 96-well plates, and 5 μM coelenterazine H (luciferase substrate) was added to each well. Five minutes after the addition of coelenterazine H, ligands were added to each well, and after 2 minutes for G protein activation or 5 minutes for arrestin recruitment, the BRET signal was determined by quantifying and calculating the ratio of the light emitted by mVenus, the energy acceptor (510-540 nm), over that emitted by RLuc8, the energy donor (485 nm). The drug-induced BRET signal was normalized, taking the Emax of the ethylketocyclazocine (EKC)-induced response as 100%. […]

[6] = biological target: T3, KOP receptor; test: G protein bias from BRET-based G protein activation and arrestin recruitment assays; type: cell-based
[7] = biological target: T1, DOP receptor; test: Competitive inhibition of 3H-diprenorphine binding; settings: 0.3 nM 3H-diprenorphine; means ± S.E.M. (n = 3)
Method: as §3, §4

[8] = biological target: T2, MOP receptor; test: Competitive inhibition of 3H-diprenorphine binding; settings: 0.3 nM 3H-diprenorphine; means ± S.E.M. (n = 3)
Method: as §3, §4

Which results are given for `O=C(CN1CCCC1C(=O)Nc1nccs1)Nc1cccc(F)c1` (racemic) [MCKK-17, 1-(2-(3-fluorophenylamino)-2-oxoethyl)-N-(thiazol-2-yl)pyrrolidine-2-carboxamide]?
EC50 [1]: > 1000 µM; agonistic activity at MOP (G protein activation), in words [2]: Neither the racemic nor the MCKK-17 stereoisomers displayed significant activity; EC50 [3]: 8.3 ± 4 µM; agonistic activity at hKOP (G protein activation), in words [3]: exhibited agonistic activity; inhibition of 3H-diprenorphine binding [4]: partially but significantly inhibited; inhibition of 3H-diprenorphine binding ([4]; listed as MCKK-17(R/S)): significantly inhibited; EC50 [5]: 164 ± 38 µM

With `CN1CC[C@]23CCCC[C@H]2[C@H]1Cc1ccc(O)cc13` [levorphanol] as the compound, how does the “bias toward G protein activation over arrestin” value [6] read?
Its value is “showed bias toward G protein activation over arrestin”.

With `C[C@H]1[C@H]2Cc3ccc(O)cc3[C@]1(C)CCN2CC1CC1` [cyclazocine] as the compound, how does the “bias toward G protein activation over arrestin” value [6] read?
The value was “showed bias toward G protein activation over arrestin; also recorded: biased toward G protein activation”.

Which results are given for `O=C(CN1CCC[C@H]1C(=O)Nc1nccs1)Nc1cccc(F)c1` [MCKK-17S, (S)-1-(2-(3-fluorophenylamino)-2-oxoethyl)-N-(thiazol-2-yl)pyrrolidine-2-carboxamide]?
agonistic activity at DOP (G protein activation), in words [1]: did not significantly activate the DOP receptor; EC50 [1]: > 1000 µM; agonistic activity at MOP (G protein activation), in words [2]: Neither the racemic nor the MCKK-17 stereoisomers displayed significant activity; selectivity for hKOP relative to MOP and DOP receptors (G protein activation) [3]: selective for hKOP relative to MOP and DOP receptors; EC50 [3]: 7.2 ± 3.8 µM; agonistic activity at hKOP (G protein activation), in words [3]: full agonism relative to EKC; also recorded: more active stereoisomer; Ki [7]: > 10000 µM; Ki [8]: > 10000 µM; selectivity for hKOP over DOP and MOP receptors (binding affinity) [4]: exhibited selectivity for the hKOP receptor; Ki [4]: 123 ± 38 µM; bias toward G protein activation over arrestin [6]: not biased toward G protein activation over arrestin; EC50 [5]: 123 ± 47 µM

What does the source list for `CN(CC(=O)NC1CCN(Cc2ccccc2)C1)Cc1ccco1` (centres unmarked) [MCKK-5]?
agonistic activity at hKOP (G protein activation), in words [3]: None of the other molecules, MCKK-4, MCKK-5 and MCKK-13, significantly activated GoB; Ki [7]: 179 ± 187 µM; Ki [8]: 428 ± 137 µM; Ki [4]: 134 ± 81 µM; inhibition of 3H-diprenorphine binding [4]: partially but significantly inhibited

Which “bias toward G protein activation over arrestin” value [6] does the source give for `Oc1ccc2c(c1)[C@@]13CCCC[C@@]1(O)[C@@H](C2)N(CC1CCC1)CC3` [butorphanol] here?
Its value is “showed bias toward G protein activation over arrestin”.

`O=C(N[C@@H]1CC[C@@]2(O)C3Cc4ccc(O)c5c4[C@@]2(CCN3CC2CC2)[C@H]1O5)c1ccc2ccccc2c1` [NNTA] was tested. Which “bias toward G protein activation over arrestin” value [6] did it give?
The value was “non-biased”.

With `CC[C@]12CCN(CC3CC3)[C@H](C(=O)c3ccc(O)cc31)[C@@H]2C` [EKC, ethylketocyclazocine] as the compound, how does the “bias toward G protein activation over arrestin” value [6] read?
The value was “non-biased”.

With `O=C(CN1CCC[C@@H]1C(=O)Nc1nccs1)Nc1cccc(F)c1` [MCKK-17R, (R)-1-(2-(3-fluorophenylamino)-2-oxoethyl)-N-(thiazol-2-yl)pyrrolidine-2-carboxamide] as the compound, how does the “agonistic activity at DOP (G protein activation), in words” value [1] read?
The value was “most active enantiomer at the DOP receptor”.

And the EC50 [1]?
The EC50 was over 1000 µM.

What about the “agonistic activity at MOP (G protein activation), in words” value [2] of the same compound?
The value was “Neither the racemic nor the MCKK-17 stereoisomers displayed significant activity”.

What about the EC50 [3] of the same compound?
The EC50 was 115 ± 9 µM.

What about the Ki [7] of the same compound?
Its Ki is 286 µM.

And the Ki [8]?
Its Ki is 508 µM.

What about the Ki [4] of the same compound?
The Ki was 2900 µM.

What about the EC50 [5] of the same compound?
Its EC50 is over 1000 µM.

How did the “agonistic activity at hKOP (G protein activation), in words” value [3] turn out when `O=C(Nc1cccc(-n2cccn2)c1)C1CCCN1Cc1c[nH]cn1` (centres unmarked) [MCKK-4] was run?
Its value is “None of the other molecules, MCKK-4, MCKK-5 and MCKK-13, significantly activated GoB”.

And the Ki [7]?
The Ki was 641 ± 192 µM.

And the Ki [8]?
The Ki was 906 ± 836 µM.

And the Ki [4]?
The Ki was 292 ± 209 µM.

What about the “inhibition of 3H-diprenorphine binding” value [4] of the same compound?
Its value is “partially but significantly inhibited”.

`O=S1(=O)CCC(NCc2cccc(OCCn3ccnc3)c2)C1` (centres unmarked) [MCKK-13] was tested. Which “agonistic activity at hKOP (G protein activation), in words” value [3] did it give?
The value was “None of the other molecules, MCKK-4, MCKK-5 and MCKK-13, significantly activated GoB”.

And the Ki [7]?
Its Ki is 300 ± 99 µM.

And the Ki [8]?
Its Ki is over 10000 µM.

And the Ki [4]?
The Ki was 453 ± 27 µM.

What about the “inhibition of 3H-diprenorphine binding” value [4] of the same compound?
Its value is “partially but significantly inhibited”.
